Some test systems named below: SNB-78 CNS; XF 498 CNS; BT-549 breast; HS 578T breast; MDA-MB-435; MDA-N; PC-3 prostate; P388 leukemia; P388/ADR leukemia; SN12K1 renal.
What all share (test): NCI tumour cell line growth inhibition, 48 h

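Five compound concentrations were applied to cells in 96-well plates for 48 hours; endpoints were derived by simple linear interpolation of the resulting dose-response curve. GI50 is the concentration that inhibits growth by half. The concentration for full growth arrest is given as TGI.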

With `COc1ccc(-c2cc(-c3cc(Cl)cc(Br)c3O)[nH]c(=O)n2)cc1`, the TGI in the assay on SNB-78 CNS is 64.2 µM.

Turning to `O=[N+]([O-])c1ccccc1C=NC12CC3CC(CC(C3)C1)C2`, the TGI in the assay on SNB-78 CNS and in the assay with XF 498 CNS was over 100 µM in each case.

In turn, `COc1ccc2c(c1)[n+]([O-])c(-c1ccc(C)cc1)c(N)[n+]2[O-]` showed a TGI in the assay with SNB-78 CNS of over 100 µM.

Regarding `CCCCN[C@H]1C2C3CC4C5CC(C42)C1(C)C53` (stereo partly specified), in the assay on SNB-78 CNS, the TGI was over 100 µM.

As for `Cc1cnc2c(c1)C(=O)C1=C(OC(C)(C)CC1O)C2=O` (stereo unspecified), in the assay with XF 498 CNS, the TGI was found to be 34 µM.

In the assay on XF 498 CNS, `COC(=O)N/N=C(/CCC(=O)Nc1ccc(C)c(C)c1)CC(=O)C(C)(C)C` came in with a TGI of over 100 µM.

Turning to `O=C(CC1(O)C(=O)Nc2ccccc21)c1ccc(O)cc1` (stereo unspecified), the TGI with SNB-78 CNS was over 100 µM.

As to `Cc1ccc(-c2cc(=O)c3cc(C)c(C)c(C(=O)O)c3o2)cc1N`, the TGI with SNB-78 CNS and in the assay with XF 498 CNS was over 100 µM in each case.

`CN[C@@H](C)[C@H](N)c1ccccc1` gave a TGI with SNB-78 CNS of over 100 µM.

On to `CSc1nc(NC2OC(COC(C)=O)C(OC(C)=O)C(OC(C)=O)C2OC(C)=O)c(-c2csc(N)n2)c(=O)n1C` (stereo unspecified), for which the TGI with SNB-78 CNS was 76.8 µM.

As to `C#CC1(O)c2ccccc2C(=O)c2ccccc21`, the TGI with SNB-78 CNS and in the assay with XF 498 CNS was over 100 µM throughout.

In turn, `CC12CO[C@@](C)(CC(S(=O)(=O)c3ccccc3)C1)O2` (stereo partly specified) gave a TGI in the assay with SNB-78 CNS of over 100 µM.

`CCN(CC)C(=O)N1CCN(C=S)CC1` displayed a TGI with SNB-78 CNS of over 100 µM.

`Clc1ccc2nc(-c3ccccc3)nc(Cl)c2c1` displayed a TGI in the assay on SNB-78 CNS of over 100 µM.

As for `CC1C[C@]2(C[C@@H](C)C(=O)O2)O[C@@H]2CC3(C)[C@@H]4CCC5C(C)(C)OC(=O)C[C@H]6OO[C@]4(CC[C@]3(C)C12)CC56O` (stereo partly specified), the TGI with SNB-78 CNS and in the assay on XF 498 CNS was over 100 µM throughout.

`O=[N+]([O-])c1ccc(/C=C/c2csnn2)cc1`: the TGI in the assay on SNB-78 CNS was over 100 µM.

Consider `O=[N+]([O-])c1cc(Cl)ccc1OCc1ccccc1`, for which the TGI in the assay with SNB-78 CNS and with XF 498 CNS was over 100 µM each time.

Take `NC(=O)N/N=C(/Cc1nc2ccc(C(=O)c3ccccc3)cc2[nH]c1=O)C(=O)Nc1ccc(C(F)(F)F)cc1[N+](=O)[O-]`: the TGI in the assay with SNB-78 CNS and in the assay with XF 498 CNS was over 100 µM each time.

On to `NC(N)=Nc1nc2ccc([N+](=O)[O-])cc2[nH]1`, for which the TGI in the assay with BT-549 breast, in the assay on HS 578T breast, with MDA-MB-435, in the assay with MDA-N and with PC-3 prostate was over 100 µM each time.

`C=C1C2CC(OC(C)=O)C3(C)C(c4ccoc4)OC(=O)[C@@H](O)[C@]13OC1C[C@H](OC(C)=O)C(C)(C)[C@H](CC(=O)OC)[C@]12C` (stereo partly specified) yielded a TGI in the assay with SNB-78 CNS of over 100 µM.

Turning to `CCOC(=O)[C@H]1Nc2ccc([N+](=O)[O-])cc2C2c3ccccc3CC21` (stereo partly specified), the TGI is over 100 µM in the assay with SNB-78 CNS and 82.7 µM in the assay with XF 498 CNS.

Consider `O=S1(=O)CS(=O)(=O)OCCO1`, for which the GI50 in the assay with BT-549 breast is 69.2 µM; in the assay on MDA-MB-435, 72.9 µM. Moreover, the TGI was 156 µM in the assay on BT-549 breast; 176 µM in the assay on HS 578T breast; 94.4 µM with MDA-MB-435; 80.3 µM with MDA-N; 119 µM with P388 leukemia; 91.8 µM in the assay with P388/ADR leukemia. The TGI stood at 665 µM in the assay with PC-3 prostate, 92.4 µM in the assay with SN12K1 renal, 140 µM in the assay on SNB-78 CNS and 47.1 µM in the assay on XF 498 CNS.

`CC(CNCCCNCCNCCCNCO)[N+](=O)[O-]` (stereo unspecified): the TGI turned out to be 48.3 µM with SNB-78 CNS and 29.9 µM in the assay on XF 498 CNS.

The compound `CC1=C(C(=O)Nc2ccc([N+](=O)[O-])cc2)C(c2ccc3c(c2)OCO3)C(C(=O)Nc2ccc([N+](=O)[O-])cc2)=C(C)N1` had a TGI in the assay on SNB-78 CNS of over 100 µM.

`C/C(=N\NC(=S)N1CC2CCC(CC2)C1)c1cccc(C)n1`: the TGI was 10.3 µM in the assay with BT-549 breast; 27 µM in the assay on HS 578T breast; 19.6 µM in the assay with MDA-MB-435; 17.8 µM in the assay on MDA-N; 15.6 µM with PC-3 prostate.

For the compound `CC1=C(Cl)C=CP(=O)(OC(C)C)C1` (stereo unspecified), in the assay with SNB-78 CNS, the TGI was over 100 µM.

As to `COc1ccc2c(c1)CC1c3c(ccc(OC)c3O)CC2N1C` (stereo unspecified), the results for the TGI in the assay on SNB-78 CNS and with XF 498 CNS were 97 µM and 62.3 µM, respectively.

In the case of `CCOC(=O)c1oc2ccc([N+](=O)[O-])c3c2c1CCC3`, the TGI is over 93 µM in the assay with BT-549 breast; over 85 µM with HS 578T breast; over 55.5 µM in the assay with MDA-MB-435; over 100 µM with MDA-N; over 100 µM in the assay on PC-3 prostate; over 75 µM with SNB-78 CNS. The same compound had a TGI with XF 498 CNS of 41 µM.

On to `O=c1c(NO)c([N+](=O)[O-])cnn1-c1ccccc1`, for which the TGI in the assay with BT-549 breast was 2.93 µM; in the assay with HS 578T breast, 11 µM; with MDA-MB-435, 3.34 µM; in the assay with MDA-N, 4.02 µM; in the assay with PC-3 prostate, 2.97 µM; with SNB-78 CNS it was 39.2 µM. This compound also returned a TGI in the assay on XF 498 CNS of 8.38 µM.

Compound `O=C(Nc1cc(Cl)cc(Cl)c1)/C(Cc1nc2ccccc2[nH]c1=O)=N/NC(=O)c1ccncc1` displayed a TGI with SNB-78 CNS of over 100 µM.

As to `Cc1cccc(N2C(=O)C(=O)C(c3nc4ccccc4s3)/C(=N/NC(=S)NN)C2=O)c1C` (stereo unspecified), the TGI in the assay on SNB-78 CNS and in the assay on XF 498 CNS was over 100 µM in each case.

For `Cc1ccc(NC(=S)SCCC(=O)O)cc1`, the TGI with SNB-78 CNS is over 100 µM.

As to `CCOC(=N)CC(=O)Nc1cccc(Cl)c1`, the TGI with SNB-78 CNS and in the assay with XF 498 CNS was over 100 µM throughout.

As to `Cc1ccn2c(CCc3nnc4cc(C)ccn34)nnc2c1`, the TGI with BT-549 breast, with HS 578T breast, with MDA-MB-435, in the assay with MDA-N and in the assay with PC-3 prostate was over 100 µM throughout.

As for `C/C(=N\N=C(\[Se])N(C)C)c1ccccn1`, the TGI is 21.4 µM with BT-549 breast; 40.6 µM in the assay with HS 578T breast; 16.6 µM in the assay with MDA-MB-435; 26.3 µM with MDA-N; under 0.01 µM in the assay with P388 leukemia; under 0.01 µM in the assay with P388/ADR leukemia. Further, the TGI with PC-3 prostate was determined as 13.9 µM; with SN12K1 renal, 13.9 µM; in the assay on SNB-78 CNS it was 15.9 µM; in the assay with XF 498 CNS, 20.6 µM.

As for `COc1cccc2c1C(=O)c1c(O)c3c(c(O)c1C2=O)C[C@@](O)(C(=O)CO)CC3OC1CC(O)C(O)C(C)O1` (stereo partly specified), the TGI in the assay with BT-549 breast was determined as 1.47 µM; with MDA-MB-435, 2.05 µM; with MDA-N, 1.98 µM; in the assay on PC-3 prostate, 2.39 µM; with SNB-78 CNS it was 9.41 µM; in the assay on XF 498 CNS it was 1.24 µM.

Consider `O=S1(=O)CCCS(=O)(=O)C(c2ccccc2)=C1c1ccccc1`, for which, in the assay with SNB-78 CNS, the TGI was over 100 µM.

As for `COc1cc2c(cc1OC)NC(=O)NC(Cc1ccc3c(c1)OCO3)CC2` (stereo unspecified), the TGI in the assay on SNB-78 CNS and in the assay with XF 498 CNS was over 100 µM each time.

As to `COC(=O)C1C=NNC1C(=O)OC` (stereo unspecified), the TGI in the assay on SNB-78 CNS and in the assay on XF 498 CNS was over 100 µM in each case.

The record behind these values is PubChem BioAssay (NCI).
